Data on 11 compounds can be found in patent US8956589B2, “Imaging diagnostic agent and extracorporeal diagnostic agent for incurable neurological diseases” (Shiga University of Medical Science, priority 2009, dated 2015).

For data set [1], the target named is T1, amyloid β peptide aggregates (Homo sapiens (Human), UniProt P05067). Description: Binding to and release from precipitated amyloid β peptide aggregates (absorbance of supernatant). The settings on record: for binding rate to amyloid β peptide aggregates: compound 2 μg/mL in phosphate buffer, 1 hour reaction. Here is the method: Each of compound 23, compound 1, and compound 24 is dissolved at a concentration of 2 μg/mL, in a phosphate buffer, and then amyloid β peptide aggregates are added to each solution, and the resultant solution is caused to react for 1 hour. Then, the solution is centrifuged for 10 minutes at 6,000 rpm, to separate the amyloid β peptide aggregates. A supernatant was removed, and an absorbance measurement was performed to measure the quantity of the compound that had not bound to the amyloid peptide aggregates and that were contained in the supernatant. The obtained quantity was subtracted from the original quantity of the compound, whereby the quantity of the compound that had bound to the amyloid β peptide aggregates was calculated.
T1 sequence (P05067 672-711): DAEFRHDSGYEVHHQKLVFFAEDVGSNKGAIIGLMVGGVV
Next, the precipitated amyloid β peptide aggregates were washed, a buffer was added thereto, and the quantity of the compound that got released was measured. Then, the rate of the compound that had bound to amyloid β peptide aggregates and then was eluted into the buffer was calculated using the original quantity of the compound as 100%.

Data set [2] addresses amyloid β peptide aggregates (1-40) (Homo sapiens (Human), UniProt P05067). It counts as binding. The settings on record: for IC50: aggregates 1 μM, thioflavin-T 3 μM, compound 0.02 to 20 μM, 30 minutes at 23° C., pH 7.4, read-out: Amyloid binding property (IC50); for binding to amyloid β peptide aggregates (in words): thioflavin-T fluorescence inhibition. Here is the method:
The binding capacity of the compounds to an amyloid β peptide aggregate was quantitatively measured by a thioflavin-T fluorescence inhibition test. […] The resultant solution was cause to react for 30 minutes at 23° C. with the light shielded. Then, the fluorescence of thioflavin-T was measured under a condition of Ex=440 nm, Em=490 nm, Cutoff filter=475 nm. The IC50 values were calculated by using an analysis software, GraphPad PRISM Ver.5 (GraphPad Software, Inc.).

Data set [3] addresses T1, amyloid β peptide aggregates. Description: Model experiment of in-vitro diagnostic agent (colour change of solution). Here is the method:
Amyloid β peptide aggregates were prepared by the method described in test example 6, and caused to precipitate in the solution by prolonging the reaction time. After the aggregates were prepared in this manner, the precipitation containing the amyloid β peptide aggregates and a supernatant not containing the amyloid β peptide aggregates were separated. The precipitation containing the amyloid aggregates was suspended at a concentration of 100 μM, in a buffer. Then, each of compounds 23 and 1 was dissolved at a concentration of 20 μg/ml in a 50 mM phosphate buffer (pH 7.5) containing 100 mM NaCl. For each compound, four kinds of liquid mixtures were prepared, that is, a liquid mixture obtained by adding 100 μl of a buffer into 100 μl of the compound containing solution (A of FIG. 13); a liquid mixture obtained by adding 100 μl of a buffer in which amyloid β peptides before agglutination reaction were dissolved, to 100 μl of the compound containing solution (B of FIG. 13); a liquid mixture obtained by adding 100 μl of a buffer in which amyloid β peptide aggregates were suspended, to 100 μl of the compound containing solution (C of FIG. 13); and a liquid mixture obtained by adding 100 μl of a buffer in which amyloid β peptide aggregates were suspended, to 100 μl of a buffer not containing a compound (D of FIG. 13). Then, the four kinds of liquid mixtures were left to stand at room temperature. […] Only the sample in which compound 1 and amyloid β peptide aggregates were mixed began to be stained in red after 5 minutes, and the color became gradually stronger and changed into strong red after about 30 minutes. […] When the absorption spectrum of the sample that had turned into red was measured, the peak had shifted towards a longer wavelength. […] As a result, it is considered that the keto/enol equilibrium in the solution was lost, and structural changes happened, that is, the keto bodies newly turned into enol bodies in the solution.

For data set [4] the target is unchanged. Briefly: Quantity determination of amyloid β aggregates by flow cytometry with anti-Aβ antibody microspheres. The settings on record: FACS, 5 to 60 minutes at 4° C., background of nonspecific IgG1 microspheres subtracted. On the procedure:
The washing operation was performed as follows: 0.75 mL of PBS-T was added, the resultant mixture was centrifuged at 10,000×G for 5 minutes, and then the supernatant was removed. […] During the reaction, the mixture was agitated every 5 to 15 minutes. After the reaction, the microspheres were washed 3 times by the same method above, then suspended in PBS-T 0.25 mL, and kept at 4° C. until they were used. Negative control microspheres were prepared by use of a nonspecific mouse IgG1 antibody (by SIGMA, No. M 9269, mouse myeloma-derived IgG1, 1 mg/mL) by the same method. […] By subtracting as a background the analysis value of the negative control microspheres to which the nonspecific mouse IgG1 antibody was bound, the number of counts of anti Aβ antibody-specific fluorescence positive microsphere particles was determined.
On the technique in general: In flow cytometry, cells or beads pass a laser one at a time.

In another data set the test system is senile plaque. Description: 19F-MR image measurement in amyloid precursor protein transgenic mouse (Tg2576). Type of data set: in vivo. The settings on record: tail vein, 8 mg/ml 250 μl, measured for 3 hours after 3 hours post administration. Here is the method:
A quantity of 4.5 mg of compound (I) was measured, and 0.112 ml of Cremophol EL was added to the measured compound. The compound was dissolved by use of a glass stick while the mixture being heated. Then, 0.45 ml of saline was added to the mixture to prepare an administration solution (8 mg/ml).
This administration solution 250 μl was administered, in one shot (about 90 seconds), to the tail vein of an amyloid precursor protein transgenic mouse (Tg2576, created according to the method disclosed in Science, 274,99 (1996)) under anesthesia by pentobarbital sodium.
After the administration was ended, with the mouse under anesthesia, the head of the mouse was continuously measured in units of 1 hour by use of an MRI device. Then, pieces of data were added to create images. ^19F-MRI brain images were obtained by chemical shift imaging method (CSI method). The MRI device that was used was 7T Unity Inova MR Scanner (by Varian).

For a further data set, the system named is senile plaques. Description: Brain tissue staining after in vivo administration. The arrangement: species or system mouse. Here is the method:
The brain of the mouse scanned by ^19F-MRI in test example 2 was taken out and fixed for 2 days in a 4%-formalin solution, and then placed in a 15%-sucrose solution for cryoprotection. Then, a 20 μm-thick slice was created by a cryostat. Next, the slice was caused to react with a rabbit antihuman amyloid β polyclonal antibody (IBL, 0.2 μg/ml) at 4° C. overnight. Further, the sample was washed with PBS-T for 10 minutes 3 times, and then caused to react with Alexa 647 anti-rabbit IgG antibody (Molecular Probes, 500-fold dilution) for 4 hours at room temperature. This sample was washed with PBS-T for 10 minutes 3 times, and then counterstained with cresyl violet for 1 minute. Then, the sample was further washed with distilled water, and then enclosed with glycerol, and this sample was used for observation. The binding capacity of the compound to a senile plaque was observed by an inverted fluorescence microscope. It should be noted that a compound image was measured by use of the FITC filter and an amyloid β protein image was measured by means of the Cy5 filter. The same treatment was performed onto a normal mouse.

The mark [5] stands for this setting: compound 20 μg/ml solution mixed with amyloid β peptide aggregates, room temperature.

As usually defined, the IC50 is the concentration needed to halve the response being measured. The melting point is the temperature of the solid-liquid transition.

Sequence of amyloid β peptide aggregates (1-40) (P05067 672-711): as above

With `CC(C)(C(=O)/C=C/c1ccc(O)c(OC(F)(F)F)c1)C(=O)/C=C/c1ccc(O)c(OC(F)(F)F)c1` [Compound 24, reference compound], the “binding rate to amyloid β peptide aggregates” value (shortened to “binding rate”) in data set [1] was determined as 27%. In data set [2], the IC50 is above 15000 nM and the “binding to amyloid β peptide aggregates (in words)” value was “scarcely bound”.
`COC(=O)COc1ccc(/C=C/C(=O)CC(=O)/C=C/c2ccc(O)c(OC)c2)cc1OC` [Compound 25] yielded a melting point of 88 to 90 °C. The IC50 in data set [2] stood at 140 nM.
On to `O=C(/C=C/c1ccc(O)c(OC(F)(F)F)c1)C(CCOCCO)C(=O)/C=C/c1ccc(O)c(OC(F)(F)F)c1` [Compound 22, 1,7-bis(4′-hydroxy-3′-trifluoromethoxyphenyl)-4-(2′-hydroxyethoxyethyl)-1,6-heptadiene-3,5-dione], for which the melting point lay in the range of 112 to 114 °C. Besides, the IC50 in data set [2] turned out to be 700 nM.
Turning to `CC(C)(C)OC(=O)CCC(C(=O)/C=C/c1ccc(O)c(OC(F)(F)F)c1)C(=O)/C=C/c1ccc(O)c(OC(F)(F)F)c1` [Compound 9], the melting point worked out at 175 °C. For the same compound, in data set [2], the IC50 amounted to 650 nM.
The corresponding values for `COc1cc(/C=C/C(=O)CC(=O)/C=C/c2cncc(C(F)(F)F)c2)ccc1O` [Compound 29] are 187 to 189 °C and 100 nM.
For `CCOC(=O)C(C(=O)/C=C/c1ccc(O)c(OC(F)(F)F)c1)C(=O)/C=C/c1ccc(O)c(OC(F)(F)F)c1` [Compound 7], the melting point is 179 to 180 °C. In data set [2], the IC50 is 140 nM.
With `COC(=O)CCC(C(=O)/C=C/c1ccc(O)c(OC(F)(F)F)c1)C(=O)/C=C/c1ccc(O)c(OC(F)(F)F)c1` [Compound 1, 1,7-bis(4′-hydroxy-3′-trifluoromethoxyphenyl)-4-methoxycarbonylethyl-1,6-heptadiene-3,5-dione], in data set [3] (setting [5]), the “time at which colour changed into strong red” value was “about 30 minutes” and the “time at which sample began to be stained in red” value was determined as 5 min. In addition, the “colour of sample with amyloid β peptides before agglutination reaction” value in data set [3] (compound 20 μg/ml solution mixed with non-aggregated amyloid β peptides) is reported as “did not change”. In addition, in data set [4], the “counts of fluorescence positive microsphere particles depending on aggregate concentration” value was “quantitativeness was confirmed”. Besides, in data set [1], the “binding rate” value turned out to be 57%. For the same compound, the “rate of compound released (eluted into buffer) from amyloid β peptide aggregates” value in data set [1] (washed precipitated aggregates, buffer added, original quantity as 100%) was “highest value”. In addition, the half-maximal inhibitory concentration (IC50) in data set [2] came out at 440 nM. For the same compound, the “19F-MRI signal in brain” value with senile plaque was “signals that are assumed to be corresponding to a senile plaque were detected in the brain”. In the data set on senile plaques (Tg2576 mouse after i.v. administration), the “transmissiveness through the blood-brain barrier” value is recorded as “confirmed”. Also, the “binding to senile plaques in vivo” value in the data set with senile plaques (brain slices of Tg2576 mouse after i.v. administration, fluorescence vs amyloid β antibody stain) is listed as “sufficient binding”.
Consider `N#CCCC(C(=O)/C=C/c1ccc(O)c(OC(F)(F)F)c1)C(=O)/C=C/c1ccc(O)c(OC(F)(F)F)c1` [Compound 15], for which the melting point lay within 134 to 135 °C. The IC50 in data set [2] was determined as 300 nM.
In turn, `CC(C(=O)/C=C/c1ccc(O)c(OC(F)(F)F)c1)C(=O)/C=C/c1ccc(O)c(OC(F)(F)F)c1` [Compound 16] came in with a melting point of 178 to 179 °C. Further, in data set [2], the IC50 turned out to be 320 nM.
`CN(C)C(=O)CCC(C(=O)/C=C/c1ccc(O)c(OC(F)(F)F)c1)C(=O)/C=C/c1ccc(O)c(OC(F)(F)F)c1` [Compound 21] yielded a melting point of 192 to 193 °C. Further, in data set [2], the IC50 turned out to be 500 nM.
For `O=C(/C=C/c1ccc(O)c(OC(F)(F)F)c1)CC(=O)/C=C/c1ccc(O)c(OC(F)(F)F)c1` [Compound 23], the melting point lay in the range of 172 to 173 °C. Moreover, the “binding rate” value in data set [1] is on record as 85%. In addition, in data set [2], the half-maximal inhibitory concentration (IC50) amounted to 210 nM and the “binding to amyloid β peptide aggregates (in words)” value is “strongly bound”.
